These results are taken from US12428651B2, “Transcription factors to improve resistance to environmental stress in plants” (Board of Trustees of Michigan State University, priority 2016, dated 2025).

For one test, the system named is phyB-9 mutant plants. Nature of the test: Primary root length in the presence of 15 μM 5-MT, phyB-9 plants overexpressing MYC2 variants. The test is classed as in vivo, Arabidopsis thaliana. To be noted: 14-day-old seedlings, overexpression in phyB-9, normalized to the same genotype without 5-MT. The method, then:
Primary root length in the presence of 15 μM 5-MT was evaluated for 14-day-old seedlings of non-transgenic (NT) phyB-9 mutant plants or phyB-9 mutant plants that overexpressed either wild-type (WT) MYC2 or a MYC2^D105N/E165K mutant allele that harbors two point mutations (D105N and E165K) that prevent JAZ binding. Primary root length was determined as the root length of a given genotype grown in the presence of 15 μM 5-MT normalized to the root length of the same genotype grown in the absence of 5-MT.

In a further test the test system is JAZ proteins. To be noted: literature (Goossens et al., 2015; Smolen et al., 2002); cited from earlier work.
The test system of another test is Arabidopsis. Kind of test: Resistance to 5-methyl tryptophan (5-MT) of transgenic Arabidopsis overexpressing MYC transcription factors. The test is classed as in vivo, Arabidopsis thaliana. The settings on record: for 5-MT resistance: overexpression from the 35S promoter, phyB mutant background, 50 μM 5-methyl-tryptophan, 3 weeks, preliminary results. The method, then:
Functional analysis of these and other MYC^D transcription factors in planta was performed by overexpressing the transcription factors in Arabidopsis with subsequent testing of the resulting transgenic lines for increased resistance to 5-methyl tryptophan (5-MT), a toxic analog of the amino acid tryptophan.

The target of a further test is T1, JAZ10.4 (Arabidopsis thaliana, UniProt Q93ZM9).
T1 construct: expressed in transfected cells; host or cells: yeast (two-hybrid)
T1 sequence (Q93ZM9 1-167 isoform Q93ZM9-3): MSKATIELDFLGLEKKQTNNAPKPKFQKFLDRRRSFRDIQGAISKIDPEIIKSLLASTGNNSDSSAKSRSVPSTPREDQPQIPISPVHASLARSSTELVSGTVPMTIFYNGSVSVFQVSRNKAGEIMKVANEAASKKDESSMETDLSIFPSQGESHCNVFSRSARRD
Kind of test: Yeast two-hybrid analysis of JAZ10.4 (bait) interaction with wild-type MYC3 and MYC3 point mutants (prey). The test is classed as binding. The settings on record: JAZ10.4 bait (CMID, no Jas motif), MYC3 variant prey. The method, then: The structural information from the MYC3-CMID complex was used to generate site-directed mutants of MYC3 that have reduced interaction with the JAZ10.4 splice variant, which contains a CMID but not a Jas motif (Chung and Howe 2009). Several promising mutants were made.
(§1) The interactions of mutants MYC3^L152A and MYC3^E148A/M155A with JAZ10.4 and MED25 was evaluated using yeast two-hybrid analyses to visualize MED25 and JAZ10.4 (bait) interactions with wild-type MYC3 and MYC3 point mutants (prey).

A further test deals with T2, MED25 (Arabidopsis thaliana, UniProt Q7XYY2).
T2 construct: expressed in transfected cells; host or cells: yeast (two-hybrid)
T2 sequence (Q7XYY2 1-836): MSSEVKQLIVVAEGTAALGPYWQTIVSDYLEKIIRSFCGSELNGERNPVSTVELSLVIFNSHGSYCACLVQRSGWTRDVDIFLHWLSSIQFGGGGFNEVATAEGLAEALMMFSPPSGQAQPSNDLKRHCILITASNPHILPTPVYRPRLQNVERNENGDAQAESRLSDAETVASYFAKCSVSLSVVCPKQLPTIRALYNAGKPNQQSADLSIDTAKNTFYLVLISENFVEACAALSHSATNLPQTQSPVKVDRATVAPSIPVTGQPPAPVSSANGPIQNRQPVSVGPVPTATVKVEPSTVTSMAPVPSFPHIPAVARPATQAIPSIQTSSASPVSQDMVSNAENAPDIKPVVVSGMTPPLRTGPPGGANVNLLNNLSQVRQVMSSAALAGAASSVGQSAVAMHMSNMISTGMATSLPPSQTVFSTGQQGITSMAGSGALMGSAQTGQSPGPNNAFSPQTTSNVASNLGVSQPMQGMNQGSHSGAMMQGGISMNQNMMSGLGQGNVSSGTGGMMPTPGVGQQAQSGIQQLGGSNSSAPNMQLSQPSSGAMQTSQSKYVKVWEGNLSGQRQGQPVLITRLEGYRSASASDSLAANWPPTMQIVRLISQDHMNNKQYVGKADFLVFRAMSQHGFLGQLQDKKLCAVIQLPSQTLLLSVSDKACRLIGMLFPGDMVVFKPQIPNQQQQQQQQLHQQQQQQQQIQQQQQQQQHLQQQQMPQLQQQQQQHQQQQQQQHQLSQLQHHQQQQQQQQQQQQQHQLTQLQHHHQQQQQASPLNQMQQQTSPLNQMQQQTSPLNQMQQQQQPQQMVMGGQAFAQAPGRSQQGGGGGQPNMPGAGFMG
Kind of test: Yeast two-hybrid analysis of MED25 (bait) interaction with wild-type MYC3 and MYC3 point mutants (prey). The test is classed as binding. To be noted: MYC3 variant prey. On the procedure:
as §1

As for “MYC2^D105N/E165K: MYC2 mutant allele that harbors two point mutations (D105N and E165K) that prevent JAZ binding”, the primary root length result with phyB-9 mutant plants is listed as “best primary root growth”.

On to “MYC3^D94N: dominant MYC3 variant (atr2D allele), Asp-to-Asn missense mutation in the JAZ-interacting domain”, for which the “interaction with most JAZ proteins” value with JAZ proteins is “fail to interact”. Also, the 5-MT resistance result in the test on Arabidopsis was “confers 5-MT resistance”.

On to MYC3^E148A/M155A, for which the JAZ10.4 interaction result with JAZ10.4 is on record as “strongly reduced”. Besides, the MED25 interaction entry with MED25 is on record as “still interacted”.

As to MYC3^L152A, in the test with JAZ10.4, the JAZ10.4 interaction result was “strongly reduced”. In addition, in the test with MED25, the MED25 interaction entry is recorded as “still interacted”.

As to “tomato MYC2 D132N: tomato (Solanum lycopersicum) MYC2 protein with SEQ ID NO:19 modified to have a D132N mutation”, the “resistance to 5-MT” value in the test with Arabidopsis (tomato MYC2 variant overexpressed in Arabidopsis, data not shown) is listed as “confers resistance”.

For the substance “wild type MYC2: Arabidopsis thaliana MYC2 sequence, SEQ ID NO:1 [reference compound]”, the primary root length result in the test on phyB-9 mutant plants is “improves primary root length”.

For “wild-type MYC3: Arabidopsis thaliana MYC3 sequence, SEQ ID NO:3”, in the test on Arabidopsis, the 5-MT resistance entry was “not”.
